# Measured values as given in US20080194546A1, “Pyrido-, Pyrazo- and Pyrimido-Pyrimidine Derivatives as mTOR Inhibitors” (KuDOS Pharmaceuticals Limited, priority 2005, published 2008).
# Test system: phosphorylation of Serine 473 in Akt in MDA-MB-468 cells
# Assay: In Vitro phospho-Ser473 Akt Assay (Acumen Explorer)
# Type: cell-based
# Settings: Homo sapiens, MDA-MB-468, read-out: IC50 values against mTOR (phospho-Ser473 Akt assay)
row,Structure (SMILES),IC50
1,CNc1nc(N2CCOC[C@@H]2C)c2ccc(-c3ccc(OC)c(CO)c3)nc2n1 [28 bp],< 11 µM
2,C[C@H]1COCCN1c1nc(N2CCOC[C@@H]2C)c2ccc(-c3ccc(F)nc3)nc2n1 [Example 11ah],< 11 µM
3,CNC(=O)c1ccc(-c2ccc3c(N4CCOC[C@@H]4C)nc(N4CCOC[C@@H]4C)nc3n2)cc1 [Example 11ak],< 0.1 µM
4,C[C@H]1COCCN1c1nc(N2CCOC[C@@H]2C)c2ccc(-c3ccncc3)nc2n1 [Example 11ar],< 11 µM
5,C[C@H]1COCCN1c1nc(N2CCOC[C@@H]2C)c2ccc(-c3ccnc(F)c3)nc2n1 [Example 11au],< 11 µM
6,C[C@H]1COCCN1c1nc(N2CCOC[C@@H]2C)c2ccc(-c3cccc(C#N)c3)nc2n1 [Example 11aw],< 11 µM
7,C[C@H]1COCCN1c1nc(N2CCOC[C@@H]2C)c2ccc(-c3ccc(N)cc3)nc2n1 [Example 11az],< 0.1 µM
8,C[C@H]1COCCN1c1nc(N2CCOC[C@@H]2C)c2ccc(-c3cccc(C(=O)N4CCN(C)CC4)c3)nc2n1 [Example 11bf],< 11 µM
9,C[C@H]1COCCN1c1nc(N2CCOC[C@@H]2C)c2ccc(-c3cccnc3)nc2n1 [Example 11bu],< 11 µM
10,C[C@@H]1CN(c2nc(N3CCOC[C@@H]3C)c3ccc(-c4ccncc4)nc3n2)C[C@H](C)O1 [Example 11ce],< 11 µM
11,C[C@H]1COCCN1c1nc(N2CCOC[C@@H]2C)c2ccc(-c3ccc4nc[nH]c(=O)c4c3)nc2n1 [Example 11cl],< 11 µM
12,"CC(C)Oc1ccc(-c2ccc3c(N4CCOC[C@@H]4C)nc(N4CCOC[C@@H]4C)nc3n2)cc1C(N)=O [Example 11cw, 5-[2,4-bis-((S)-3-methyl-morpholin-4-yl)-pyrido[2,3-d]pyrimidin-7-yl]-2-isopropoxy-benzamide]",< 11 µM

# Same assay, conditions: Homo sapiens; MDA-MB-468 cells, 2 hours; read-out: IC50, phospho-Ser473 Akt assay (cellular IC50, measured by pAkt)
row,Structure (SMILES),IC50
1,"C[C@H]1COCCN1c1nc(N2CCOC[C@@H]2C)c2ccc(-c3ccc4c(c3)C(=O)NCCN4)nc2n1 [Example 11df, 7-[2,4-bis-((S)-3-methyl-morpholin-4-yl)-pyrido[2,3-d]pyrimidin-7-yl]-1,2,3,4-tetrahydro-benzo[e][1,4]diazepin-5-one]",0.381 µM
2,"C[C@H]1COCCN1c1nc(N2CCOC[C@@H]2C)c2ccc(-c3cccc(N)c3)nc2n1 [Example 11dr, 3-[2,4-Bis-((S)-3-methyl-morpholin-4-yl)-pyrido[2,3-d]pyrimidin-7-yl]-phenylamine]",0.0141 µM

# Same assay, conditions: Homo sapiens; MDA-MB-468 cells, compounds of Formula I(B); read-out: IC50 values against mTOR (phospho-Ser473 Akt assay)
row,Structure (SMILES),IC50
1,COc1ccc(-c2ccc3c(N4CCOC[C@@H]4C)nc(N4CCOC[C@@H]4C)nc3n2)cc1CO [Example 11a],< 0.1 µM
2,CNC(=O)c1cccc(-c2ccc3c(N4CCOC[C@@H]4C)nc(N4CCOC[C@@H]4C)nc3n2)c1 [Example 11ap],< 0.1 µM

# Biological target: T1, mTOR (Homo sapiens, UniProt P42345)
# T1 construct: mTOR protein was isolated from HeLa cell cytoplasmic extract by immunoprecipitation; endogenous in cells; host or cells: HeLa cell cytoplasmic extract (immunoprecipitate)
# Assay: Biological Assay: mTOR enzyme activity, mTOR immunoprecipitated from HeLa cell cytoplasmic extract, recombinant PHAS-1 as substrate
# Type: biochemical
# Settings: Biological Assay, upper bounds; read-out: IC50 values against mTOR
# Text: For mTOR enzyme activity assays, mTOR protein was isolated from HeLa cell cytoplasmic extract by immunoprecipitation, and activity determined essentially as described previously using recombinant PHAS-1 as a substrate (ref. 21).
row,Structure (SMILES),IC50
1,COC(=O)c1ccc(Nc2ccc3c(N4CCOCC4)nc(N4C[C@@H](C)O[C@@H](C)C4)nc3n2)o1 [Example 2an],< 10 µM
2,Cc1nnc(Nc2ccc3c(N4CCOCC4)nc(N4C[C@@H](C)O[C@@H](C)C4)nc3n2)o1 [Example 2ao],< 10 µM
3,C[C@@H]1CN(c2nc(N3CCOCC3)c3ccc(Nc4oc(-c5ccccc5)cc4C#N)nc3n2)C[C@H](C)O1 [Example 2ap],< 1 µM
4,C[C@@H]1CN(c2nc(N3CCOCC3)c3ccc(Nc4ccsc4)nc3n2)C[C@H](C)O1 [Example 2aq],< 1 µM
5,C[C@@H]1CN(c2nc(N3CCOCC3)c3ccc(Nc4nc[nH]c4C#N)nc3n2)C[C@H](C)O1 [Example 2ar],< 1 µM
6,COC(=O)c1cc(Nc2ccc3c(N4CCOCC4)nc(N4C[C@@H](C)O[C@@H](C)C4)nc3n2)cn1C [Example 2as],< 1 µM
7,C[C@@H]1CN(c2nc(N3CCOCC3)c3ccc(Nc4nc5cncnc5[nH]4)nc3n2)C[C@H](C)O1 [Example 2au],< 10 µM
8,C[C@@H]1CN(c2nc(N3CCOCC3)c3ccc(Nc4nccc5cccnc45)nc3n2)C[C@H](C)O1 [Example 2av],< 1 µM
9,C[C@@H]1CN(c2nc(N3CCOCC3)c3ccc(Nc4ccnc(-c5cccnc5)n4)nc3n2)C[C@H](C)O1 [Example 2aw],< 1 µM
10,C[C@@H]1CN(c2nc(N3CCOCC3)c3ccc(Nc4nccc(-c5ccco5)n4)nc3n2)C[C@H](C)O1 [Example 2ax],< 1 µM
11,C[C@@H]1CN(c2nc(N3CCOCC3)c3ccc(Nc4ccc5cccc(O)c5n4)nc3n2)C[C@H](C)O1 [Example 2ay],< 10 µM
12,C[C@@H]1CN(c2nc(N3CCOCC3)c3ccc(Nc4cccnc4)nc3n2)C[C@H](C)O1 [Example 2az],< 1 µM
13,C[C@@H]1CN(c2nc(N3CCOCC3)c3ccc(Nc4ccncc4)nc3n2)C[C@H](C)O1 [Example 2ba],< 0.1 µM
14,C[C@@H]1CN(c2nc(N3CCOCC3)c3ccc(Nc4ccncn4)nc3n2)C[C@H](C)O1 [Example 2bb],< 1 µM
15,C[C@@H]1CN(c2nc(N3CCOCC3)c3ccc(Nc4cnccn4)nc3n2)C[C@H](C)O1 [Example 2bc],< 10 µM
16,Cc1ccc(Nc2ccc3c(N4CCOCC4)nc(N4C[C@@H](C)O[C@@H](C)C4)nc3n2)nc1 [Example 2bd],< 1 µM
17,Cc1cccc(Nc2ccc3c(N4CCOCC4)nc(N4C[C@@H](C)O[C@@H](C)C4)nc3n2)n1 [Example 2be],< 1 µM
18,Cc1cccnc1Nc1ccc2c(N3CCOCC3)nc(N3C[C@@H](C)O[C@@H](C)C3)nc2n1 [Example 2bg],< 10 µM
19,C[C@@H]1CN(c2nc(N3CCOCC3)c3ccc(N(C)C)nc3n2)C[C@H](C)O1 [Example 2d],< 10 µM
20,C[C@@H]1CN(c2nc(N3CCOCC3)c3ccc(Nc4cccc5cnccc45)nc3n2)C[C@H](C)O1 [Example 2f],< 10 µM
21,COC(=O)c1ccc(Nc2ccc3c(N4CCOCC4)nc(N4C[C@@H](C)O[C@@H](C)C4)nc3n2)cc1 [Example 2g],< 1 µM
22,C[C@@H]1CN(c2nc(N3CCOCC3)c3ccc(Nc4ccc(C#N)cc4)nc3n2)C[C@H](C)O1 [Example 2h],< 1 µM
23,C[C@H]1CCCCN1c1nc(N2CCOCC2)c2ccc(Nc3ccccc3)nc2n1 [Example 2i],< 1 µM
24,Cc1ccc(Nc2ccc3c(N4CCOCC4)nc(N4C[C@@H](C)O[C@@H](C)C4)nc3n2)cc1 [Example 2j],< 1 µM
25,C[C@@H]1CN(c2nc(N3CCOCC3)c3ccc(Nc4ccc(Cl)cc4)nc3n2)C[C@H](C)O1 [Example 2k],< 1 µM

row,Structure (SMILES),IC50
1,Cc1cc([N+](=O)[O-])cc(Cl)c1Nc1ccc2c(N3CCOCC3)nc(N3C[C@@H](C)O[C@@H](C)C3)nc2n1 [Example 2l],< 10 µM
2,C[C@@H]1CN(c2nc(N3CCOCC3)c3ccc(Nc4cccc(C(=O)c5ccccc5)c4)nc3n2)C[C@H](C)O1 [Example 2m],< 10 µM
3,CC(C)c1cccc(Nc2ccc3c(N4CCOCC4)nc(N4C[C@@H](C)O[C@@H](C)C4)nc3n2)c1 [Example 2n],< 1 µM
4,C[C@@H]1CN(c2nc(N3CCOCC3)c3ccc(Nc4cccc5cccnc45)nc3n2)C[C@H](C)O1 [Example 2o],< 10 µM
5,COc1ccc(/C=C/c2ccc(Nc3ccc4c(N5CCOCC5)nc(N5C[C@@H](C)O[C@@H](C)C5)nc4n3)cc2)cc1 [Example 2p],< 1 µM
6,C[C@@H]1CN(c2nc(N3CCOCC3)c3ccc(Nc4ccc(-n5cccc5)cc4)nc3n2)C[C@H](C)O1 [Example 2q],< 1 µM
7,C[C@@H]1CN(c2nc(N3CCOCC3)c3ccc(Nn4cnnc4)nc3n2)C[C@H](C)O1 [Example 2r],< 10 µM
8,C[C@@H]1CN(c2nc(N3CCOCC3)c3ccc(Nc4nc(-c5ccccc5Cl)cs4)nc3n2)C[C@H](C)O1 [Example 2s],< 10 µM
9,Cc1cnccc1Nc1ccc2c(N3CCOCC3)nc(N3C[C@@H](C)O[C@@H](C)C3)nc2n1 [Example 2t],< 1 µM
10,C=C(C)CNc1ccc2c(N3CCOCC3)nc(N3C[C@@H](C)O[C@@H](C)C3)nc2n1 [Example 2v],< 10 µM
11,C[C@@H]1CN(c2nc(N3CCOCC3)c3ccc(NC4CCN(C)CC4)nc3n2)C[C@H](C)O1 [Example 2w],< 10 µM
12,Cc1cc(Nc2ccc3c(N4CCOCC4)nc(N4C[C@@H](C)O[C@@H](C)C4)nc3n2)no1 [Example 2x],< 10 µM
13,Cc1ccc(-n2nc(C)cc2Nc2ccc3c(N4CCOCC4)nc(N4C[C@@H](C)O[C@@H](C)C4)nc3n2)cc1 [Example 2y],< 10 µM
14,C[C@@H]1CN(c2nc(N3CCOCC3)c3ccc(N)nc3n2)C[C@H](C)O1 [Example 3a],< 1 µM
15,C[C@H]1CCCCN1c1nc(N2CCOCC2)c2ccc(N)nc2n1 [Example 3b],< 1 µM
16,CCNC(=O)Nc1ccc2c(N3CCOCC3)nc(N3C[C@@H](C)O[C@@H](C)C3)nc2n1 [Example 4a],< 10 µM
17,C[C@@H]1CN(c2nc(N3CCOCC3)c3ccc(NC(=O)C4CCCC4)nc3n2)C[C@H](C)O1 [Example 5b],< 10 µM
18,C/C=C/C(=O)Nc1ccc2c(N3CCOCC3)nc(N3C[C@@H](C)O[C@@H](C)C3)nc2n1 [Example 5c],< 1 µM
19,C[C@@H]1CN(c2nc(N3CCOCC3)c3ccc(NC(=O)CSc4ccccc4)nc3n2)C[C@H](C)O1 [Example 5d],< 10 µM
20,C[C@@H]1CN(c2nc(N3CCOCC3)c3ccc(NC(=O)c4cnc5ccccc5n4)nc3n2)C[C@H](C)O1 [Example 5e],< 10 µM
21,CC(=O)Nc1ccc2c(N3CCOCC3)nc(N3C[C@@H](C)O[C@@H](C)C3)nc2n1 [Example 5f],< 10 µM
22,C[C@@H]1CN(c2nc(N3CCOCC3)c3ccc(NC(=O)c4nc[nH]c4N)nc3n2)C[C@H](C)O1 [Example 5g],< 10 µM
23,C[C@@H]1CN(c2nc(N3CCOCC3)c3ccc(NS(C)(=O)=O)nc3n2)C[C@H](C)O1 [Example 6],< 10 µM
24,CCCCOc1ccc2c(N3CCOCC3)nc(N3C[C@@H](C)O[C@@H](C)C3)nc2n1 [Example 7],< 10 µM
25,COc1ccc(-c2ccc3c(N4CCOCC4)nc(N4C[C@@H](C)O[C@@H](C)C4)nc3n2)cc1CNCc1cccs1 [Example 8j],< 0.1 µM
